Consider 8 compounds from patent publication US9434727B2, “Substituted 4-phenylpiperidines, their preparation and use” (THE TRUSTEES OF COLUMBIA UNIVERSITY IN THE CITY OF NEW YORK, priority 2014, dated 2016).

The IC50 is the concentration that inhibits the measured activity by half.

Counter-ions that a name gives are not always drawn.

Data set [1] has as its target T1, RBP4-TTR interaction (Homo sapiens (Human), UniProt P02753). The experiment in a line: TR-FRET (HTRF) assay for retinol-induced RBP4-TTR interaction. It counts as biochemical. The settings on record: in the presence of 1 μM retinol; read-out: HTRF assay for antagonists of RBP4-TTR interaction: IC50. Summed up:
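Bacterial MBP-RBP4 and Eu³⁺-cryptate-labeled untagged human TTR were incubated with titrated compound in the presence of 1 μM retinol, overnight at +4° C in the dark. Buffer: 10 mM Tris-HCl pH 7.5, 1 mM DTT, 0.05% NP-40, 0.05% Prionex, 6% glycerol, 400 mM KF. Signal is reported as Flu665/Flu620×10,000.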
A general note: Time-resolved FRET reads energy transfer from a long-lived donor to a nearby acceptor.

The target in the next data set is serum RBP4 (Mus musculus (Mouse), UniProt Q00724). The experiment in a line: Serum RBP4 levels in Abca4−/− mice. It counts as in vivo. Conditions: 25 mg/kg for 12 weeks, mice starting at 17 weeks old. How it is done: (§1) The effectiveness of the compounds listed in Table 1 are tested in wild-type and Abca4−/− mice. The Abca4−/− mouse model manifests accelerated accumulation of lipofuscin in the RPE and is considered a pre-clinical efficacy model for a drug reducing lipofuscin accumulation. Compounds are orally dosed for 3 weeks at 30 mg/kg. There is a reduction in the serum RBP4 level in treated animals. The levels of A2E/isoA2E and other bisretinoids are reduced in treated mice.
(§2) Abca4−/− mice have A2E levels in the ˜15-19 pmoles/eye range at 17 weeks old. Mice, starting at 17 weeks old, were treated with 25 mg/kg of Compound 81 for 12 weeks.

Data set [2] concerns the target T2, RBP4 (Homo sapiens (Human), UniProt P02753). The experiment in a line: Scintillation proximity (SPA) RBP4 binding assay. Conditions: 10 nM 3H-Retinol, 50 nM biotinylated RBP4. Summed up:
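Biotinylated urinary human RBP4 (50 nM) on streptavidin-PVT SPA beads with 10 nM ³H-retinol and test compound, in PBS pH 7.4, 1 mM EDTA, 0.1% BSA, 0.5% CHAPS. Nonspecific binding with 20 μM unlabeled retinol. Equilibrated 6 h at room temperature then overnight at 4° C under dim light.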

Data set [3] relates to Abca4−/− mice. The data set can be described thus: Bisretinoid accumulation in eyes of Abca4−/− mice. It counts as in vivo, mouse. Conditions: 25 mg/kg for 12 weeks, mice starting at 17 weeks old, versus vehicle-treated controls. How it is done:
as §1, §2

Data set [4] deals with T2, RBP4. The settings on record: cited from earlier work.
Data set [5] addresses T1, RBP4-TTR interaction. The settings on record: cited from earlier work.
In data set [6] the test system is retinal pigment epithelium cells. Conditions: many cell types, including the retinal pigment epithelium cells; cited from earlier work.
Data set [7] has as its system Abca4−/− mice. Conditions: cited from earlier work.
In the next data set the target is serum RBP4 and retinol (Rattus norvegicus (Rat), UniProt P04916). Conditions: in vivo; cited from earlier work.
The test system of the next data set is mice. The settings on record: cited from earlier work.

Turning to `O=C(c1n[nH]c2c1CCNC2)N1CCC(c2cccc(F)c2C(F)(F)F)CC1` [Compound 30, (4-(3-Fluoro-2-(trifluoromethyl)phenyl)piperidin-1-yl)(4,5,6,7-tetrahydro-1H-pyrazolo[3,4-c]pyridin-3-yl)methanone Hydrochloride], the IC50 at RBP4-TTR interaction [1] was 44.1 nM; at RBP4 [2], 13.3 nM. Moreover, on serum RBP4 (present-tense paper example), the “serum RBP4 level” value was “significant serum RBP4 reduction”.

Regarding `O=C(c1n[nH]c2c1CCNC2)N1CCC(c2ccc(F)c(F)c2C(F)(F)F)CC1` [Compound 34], the IC50 was 53.1 nM at RBP4-TTR interaction [1] and 20.7 nM at RBP4 [2]. For the same compound, the “serum RBP4 level” value on serum RBP4 (present-tense paper example) is on record as “significant serum RBP4 reduction”.

Take `O=C(c1n[nH]c2c1CNCC2)N1CCC(c2ccc(F)c(F)c2C(F)(F)F)CC1` [Compound 36, (4-(3,4-Difluoro-2-(trifluoromethyl)phenyl)piperidin-1-yl)(4,5,6,7-tetrahydro-1H-pyrazolo[4,3-c]pyridin-3-yl)methanone Trifluoroacetic Acid Salt]: the results for the IC50 on RBP4-TTR interaction [1] and at RBP4 [2] were 291 nM and 10.9 nM, respectively. In addition, the “serum RBP4 level” value at serum RBP4 (present-tense paper example) was “significant serum RBP4 reduction”.

For the compound `O=C(c1n[nH]c2c1CNC2)N1CCC(c2ccc(F)c(F)c2C(F)(F)F)CC1` [Compound 38, (4-(3,4-Difluoro-2-(trifluoromethyl)phenyl)piperidin-1-yl)(1,4,5,6-tetrahydropyrrolo[3,4-c]pyrazol-3-yl)methanone Hydrochloride], the results for the concentration for half-maximal inhibition (IC50) on RBP4-TTR interaction [1] and at RBP4 [2] were 200 nM and 26.9 nM, respectively. Moreover, the “serum RBP4 level” value on serum RBP4 (present-tense paper example) is given as “significant serum RBP4 reduction”.

`O=C(c1n[nH]c2c1CCNC2)N1CCC(c2cccc(F)c2Cl)CC1` [Compound 40, (4-(2-Chloro-3-fluorophenyl)piperidin-1-yl)(4,5,6,7-tetrahydro-1Hpyrazolo[3,4-c]pyridin-3-yl)methanone Hydrochloride]: the IC50 on RBP4-TTR interaction [1] was 84.9 nM; on RBP4 [2] it was 14 nM. Besides, on serum RBP4 (present-tense paper example), the “serum RBP4 level” value is “significant serum RBP4 reduction”.

In the case of `O=C(c1n[nH]c2c1CNCC2)N1CCC(c2cccc(F)c2Cl)CC1` [Compound 42, (4-(2-Chloro-3-fluorophenyl)piperidin-1-yl)(4,5,6,7-tetrahydro-1Hpyrazolo[4,3-c]pyridin-3-yl) methanone Hydrochloride], the IC50 is 791 nM on RBP4-TTR interaction [1] and 424 nM on RBP4 [2]. For the same compound, the “serum RBP4 level” value at serum RBP4 (present-tense paper example) is recorded as “significant serum RBP4 reduction”.

In the case of `CC(=O)N1CCc2c(C(=O)N3CCC(c4ccc(F)c(F)c4C(F)(F)F)CC3)n[nH]c2C1` [Compound 81, 1-(3-(4-(3,4-Difluoro-2-(trifluoromethyl)phenyl)piperidine-1-carbonyl)-4,5-dihydro-1H-pyrazolo[3,4-c]pyridin-6(7H)-yl)ethanone], the “reduction in bisretinoid content” value with Abca4−/− mice [3] stood at 53%. In addition, the “serum RBP4 level” value on serum RBP4 is “significant serum RBP4 reduction”.

Consider `CC1=C(/C=C/C(C)=C/C=C/C(C)=C/C(=O)Nc2ccc(O)cc2)C(C)(C)CCC1` [fenretinide, N-(4-hydroxy-phenyl)retinamide], for which the “binding to RBP4 and displacement of all-trans retinol” value on RBP4 [4] is given as “bind to RBP4, displace all-trans retinol from RBP4”. At RBP4-TTR interaction [5], the RBP4-TTR interaction result is reported as “disrupt the RBP4-TTR interaction”. Further, the induction of apoptosis entry in data set [6] was “extremely active inducer of apoptosis”. In addition, in the data set with Abca4−/− mice [7] (Abca4−/− mice), the A2E production result is listed as “reduced A2E production”. Besides, the “ocular all-trans retinol uptake and visual cycle” value in the data set with Abca4−/− mice [7] (mouse, in vivo) is “inhibit ocular all-trans retinol uptake and slow down the visual cycle”. The “serum RBP4 and retinol” value at serum RBP4 and retinol is “reduce serum RBP4 and retinol”. In addition, the formation of hemangiosarcomas entry with mice is given as “stimulate formation of hemangiosarcomas”.
